Data: ChEMBL document CHEMBL1141312, “Induction of apoptosis by diterpenes from the soft coral Xenia elongata” (2007)
The source made the active and inactive calls. The calls are words filed in the database; no cut-off is given here.

Columns and labels:
W2 = assay: (§1) Induction of apoptosis in mouse W2 cells assessed as cell death after 48 hrs by MTT assay; assay type: functional
D3 [1] = assay: Induction of apoptosis in mouse apoptosis-resistant D3 cells assessed as cell growth at 12 uM after 48 hrs by MTT assay; assay type: functional, cell-based
D3 [2] = assay: Induction of apoptosis in mouse apoptosis-resistant D3 cells assessed as cell growth at 12 uM after 72 hrs by MTT assay; assay type: functional, cell-based
[3] = as §1; assay type: functional
[4] = Induction of apoptosis in apoptosis-resistant mouse D3 cells assessed as cell growth after 48 hrs by MTT assay; assay type: functional

SMILES | Activity (W2) | Activity (D3 [1]) | Activity (D3 [2]) | Activity [3] [%] | Activity [4] [%]
C=C1CC/C=C(\C)CC[C@H](/C(=C/C=C/C(C)(C)O)COC(C)=O)[C@H]1C(=O)OC | Active | – | – | – | –
C=C1CC/C=C(\C)CC[C@H](/C(=C\CC=C(C)C)COC(C)=O)[C@H]1C(=O)OC | Active | – | – | – | –
C=C1CC/C=C(\C)CC[C@@H]2C(C(CC3OC3(C)C)OC(C)=O)=CO[C@H](OC(C)=O)[C@@H]12 (some centres not stated) | – | Active | Active | 50 | 61
C=C1CC/C=C(\C)CC[C@H](/C(=C\C=C\C(C)(C)O)COC(C)=O)[C@H]1C(OC)OC | Active | – | – | – | –
